Experimental data taken from PMC11118832 (Biomolecules, 2024).
Square brackets hold non-standard residues; d marks the D form. Ends that are not written are not given here. Peptide text beside a SMILES is read from it. Phe(4-NH2) = Nc1ccc(C[C@H](N)C(=O)O)cc1; hLeu = CC(C)CC[C@H](N)C(=O)O; Nle = CCCC[C@H](N)C(=O)O

These compounds were tested against T1, PD-1/PD-L1 (Homo sapiens, UniProt Q15116) (assay: In vitro time-resolved FRET PD-1/PD-L1 binding assay (CisBio kit)). Conditions: CisBio PD-1/PD-L1 binding kit, TR FRET, 96-well, serial dilutions in triplicate; NI = no inhibition at maximum concentration tested (* 5 μM, ** 50 μM); read-out: EC50 (Supplementary Table S1; inhibition of PD-1/PD-L1 binding by in vitro TR-FRET assay).
T1 construct: this kit uses ectodomains of PD-1 and PD-L1 that are expressed with orthogonal fusion tags (Tag-1 and Tag-2); purchased CisBio (currently Perkin-Elmer, Bedford, MA)
T1 sequence (Q15116 25-170 limits assumed): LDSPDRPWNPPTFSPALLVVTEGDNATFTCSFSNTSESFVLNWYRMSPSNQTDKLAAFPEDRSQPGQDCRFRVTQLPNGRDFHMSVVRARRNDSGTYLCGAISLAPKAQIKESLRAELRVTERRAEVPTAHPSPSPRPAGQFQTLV
Procedure: Commercial PD-1/PD-L1 binding assay kit (CisBio, currently Perkin-Elmer, Bedford, MA) for time resolve fluorescent energy transfer (FRET) was used to assess peptides binding to PD-1. The assay for peptide screening was performed in a 96-well format (normal pressure), starting with 4-fold serial dilutions of each peptide in triplicate. No-peptide triplicate wells were used to assess fluorescent energy transfer in the absence of inhibition, and no-PD-1/PD-L1 triplicate wells were used to assess the background fluorescent energy transfer in the absence of PD-1/PD-L1 complexes. More detailed concentration dependences were obtained for selected peptides. Only freshly dissolved peptides were used in the assay. Various QSAR (quantitative structure activity relationship) hypotheses were tested by synthesizing batches of 10–12 peptides. In total, over one hundred candidates in ten iterations were screened for their ability to inhibit in vitro PD-1/PD-L1 binding using the commercial PD-1/PD-L1 binding assay kit (CisBio, currently Perkin-Elmer). Briefly, this kit uses ectodomains of PD-1 and PD-L1 that are expressed with orthogonal fusion tags (Tag-1 and Tag-2). It also includes two antibodies to selectively interact with these tags. The antibody against one tag is labeled with fluorescent moiety, which serves as a donor, while the other antibody is labeled with fluorescent moiety, which serves as an acceptor in fluorescent resonance energy transfer (FRET). When the complex is formed and probed with both anti-Tag-1 and anti-Tag-2 antibodies, donor and acceptor are sufficiently close, and FRET can be detected in a time-resolved (TR) manner. Inhibitors of PD-1/PD-L1 interactions prevent complex formation, leading to a decrease in TR FRET in a concentration-dependent manner, as shown in Figure 2 for four representative peptide inhibitors. Initial fourfold dilutions are exemplified by data for peptides B5.11 and B5.6 (panels A and B); examples of the more detailed follow-up concentration dependences are shown for peptides B2.4 and B2.22 (panels C and D). The potency of the inhibitors is then characterized by IC50, a concentration that inhibits TR FRET by 50%, allowing for a facile comparison of different inhibitors (Figure 2E).

Row | Compound | EC50 [µM]
1 | Ac-GADYKRITVKVN-NH2 [PL-120, reference compound] | 35
2 | Ac-NVIDGAAWDYKY-NH2 [B8.5] | > 5
3 | Ac-LVWVGAAWDYKY-NH2 [B3.2] | > 50
4 | CCCC[C@H](NC(=O)[C@@H](NC(=O)[C@H](CCCNC(=N)N)NC(C)=O)C(C)C)C(=O)N[C@@H](CCCNC(=N)N)C(=O)N[C@H](C(=O)N[C@@H](CCC(=O)O)C(=O)NCC(=O)N[C@@H](C)C(=O)N[C@@H](C)C(=O)N[C@@H](Cc1c[nH]c2ccccc12)C(=O)N[C@@H](CC(=O)O)C(=O)N[C@@H](Cc1ccc(O)cc1)C(=O)N[C@@H](CCCCN)C(=O)N[C@@H](Cc1ccc(O)cc1)C(N)=O)[C@@H](C)CC [B4.6] (Ac-RV[Nle]RIEGAAWDYKY-NH2) | > 5
5 | CC(=O)N[C@H](CCC(=O)O)C(=O)N[C@@H](C)C(=O)N[C@@H](Cc1c[nH]c2ccccc12)C(=O)N[C@@H](CC(=O)O)C(=O)N[C@@H](Cc1ccc(O)cc1)C(=O)N[C@@H](CCCCN)C(=O)N[C@@H](Cc1ccc(O)cc1)C(N)=O [B9.5] (Ac-[dE]AWDYKY-NH2) | > 5
6 | Ac-DVIVGAAWDYKYLQ-NH2 [B7.5] | > 5
7 | CCCC[C@H](N)C(=O)N[C@H](C(=O)N[C@H](C(=O)N[C@H](C(=O)NCC(=O)N[C@@H](C)C(=O)N[C@@H](C)C(=O)N[C@@H](Cc1c[nH]c2ccccc12)C(=O)N[C@@H](CC(=O)O)C(=O)N[C@@H](Cc1ccc(O)cc1)C(=O)N[C@@H](CCCCN)C(=O)N[C@@H](CCCNC(=N)N)C(=O)O)C(C)C)[C@@H](C)CC)C(C)C [B4.14] (H-[Nle]VIVGAAWDYKR-OH; N-terminus and C-terminus assumed) | > 5
8 | CCCC[C@H](NC(=O)[C@@H](NC(=O)[C@@H](N)CCCNC(=N)N)C(C)C)C(=O)N[C@H](C(=O)N[C@H](C(=O)N[C@H](C(=O)NCC(=O)N[C@@H](C)C(=O)N[C@@H](C)C(=O)N[C@@H](Cc1c[nH]c2ccccc12)C(=O)N[C@@H](CC(=O)O)C(=O)N[C@@H](Cc1ccc(O)cc1)C(=O)N[C@@H](CCCCN)C(=O)N[C@@H](Cc1ccc(O)cc1)C(=O)O)C(C)C)[C@@H](C)CC)C(C)C [B4.7] (H-RV[Nle]VIVGAAWDYKY-OH; N-terminus and C-terminus assumed) | > 5
9 | Ac-DAIDGAAWDYKY-NH2 [B8.2] | > 5
10 | CC(=O)N[C@@H](CC(=O)O)C(=O)N[C@H](C(=O)N[C@@H](CCC(C)C)C(=O)N[C@@H](CC(=O)O)C(=O)NCC(=O)N[C@@H](C)C(=O)N[C@@H](C)C(=O)N[C@@H](Cc1c[nH]c2ccccc12)C(=O)N[C@@H](CC(=O)O)C(=O)N[C@@H](Cc1ccc(O)cc1)C(=O)N[C@@H](CCCCN)C(=O)N[C@@H](Cc1ccc(O)cc1)C(N)=O)C(C)C [B8.14] (Ac-DV[hLeu]DGAAWDYKY-NH2) | > 5
11 | CCCC[C@H](NC(=O)[C@@H](NC(=O)[C@H](CCCC)NC(=O)[C@@H](NC(=O)[C@@H](N)CCCNC(=N)N)C(C)C)C(C)C)C(=O)N[C@H](C(=O)NCC(=O)N[C@@H](C)C(=O)N[C@@H](C)C(=O)N[C@@H](Cc1c[nH]c2ccccc12)C(=O)N[C@@H](CC(=O)O)C(=O)N[C@@H](Cc1ccc(O)cc1)C(=O)N[C@@H](CCCCN)C(=O)N[C@@H](Cc1ccc(O)cc1)C(=O)O)C(C)C [B4.8] (H-RV[Nle]V[Nle]VGAAWDYKY-OH; N-terminus and C-terminus assumed) | > 5
12 | CC(=O)N[C@H](CC(=O)O)C(=O)N[C@@H](C)C(=O)N[C@@H](C)C(=O)N[C@@H](Cc1c[nH]c2ccccc12)C(=O)N[C@@H](CC(=O)O)C(=O)N[C@@H](Cc1ccc(O)cc1)C(=O)N[C@@H](CCCCN)C(=O)N[C@@H](Cc1ccc(O)cc1)C(N)=O [B9.9] (Ac-[dD]AAWDYKY-NH2) | > 5
13 | Ac-DVIVGAAWDYKYLY-NH2 [B7.4] | > 5
14 | CC(=O)N[C@@H](CCC(C)C)C(=O)N[C@H](C(=O)N[C@@H](Cc1c[nH]c2ccccc12)C(=O)N[C@H](C(=O)NCC(=O)N[C@@H](C)C(=O)N[C@@H](C)C(=O)N[C@@H](Cc1c[nH]c2ccccc12)C(=O)N[C@@H](CC(=O)O)C(=O)N[C@@H](CCCNC(=N)N)C(=O)N[C@@H](CCCCN)C(=O)N[C@@H](Cc1ccc(O)cc1)C(N)=O)C(C)C)C(C)C [B3.21] (Ac-[hLeu]VWVGAAWDRKY-NH2) | > 5
15 | Ac-EVIDGAAWDYKY-NH2 [B8.17] | > 5
16 | Ac-DAWDYKY-NH2 [B9.2] | > 5
17 | CCCC[C@H](N)C(=O)N[C@H](C(=O)N[C@@H](Cc1c[nH]c2ccccc12)C(=O)N[C@H](C(=O)NCC(=O)N[C@@H](C)C(=O)N[C@@H](C)C(=O)N[C@@H](Cc1c[nH]c2ccccc12)C(=O)N[C@@H](CC(=O)O)C(=O)N[C@@H](CCCNC(=N)N)C(=O)N[C@@H](CCCCN)C(=O)N[C@@H](Cc1ccc(O)cc1)C(=O)O)C(C)C)C(C)C [B4.13] (H-[Nle]VWVGAAWDRKY-OH; N-terminus and C-terminus assumed) | > 5
18 | CCCC[C@H](NC(=O)[C@@H](NC(=O)[C@H](CC(=O)O)NC(C)=O)C(C)C)C(=O)N[C@H](C(=O)NCC(=O)N[C@@H](C)C(=O)N[C@@H](C)C(=O)N[C@@H](Cc1c[nH]c2ccccc12)C(=O)N[C@@H](CC(=O)O)C(=O)N[C@@H](Cc1ccc(O)cc1)C(=O)N[C@@H](CCCCN)C(=O)N[C@@H](Cc1ccc(O)cc1)C(N)=O)C(C)C [B5.8] (Ac-DV[Nle]VGAAWDYKY-NH2) | > 5
19 | CC[C@H](C)[C@H](NC(=O)[C@H](CCC(C)C)NC(=O)[C@H](CC(=O)O)NC(C)=O)C(=O)N[C@@H](CC(=O)O)C(=O)NCC(=O)N[C@@H](C)C(=O)N[C@@H](C)C(=O)N[C@@H](Cc1c[nH]c2ccccc12)C(=O)N[C@@H](CC(=O)O)C(=O)N[C@@H](Cc1ccc(O)cc1)C(=O)N[C@@H](CCCCN)C(=O)N[C@@H](Cc1ccc(O)cc1)C(N)=O [B8.18] (Ac-D[hLeu]IDGAAWDYKY-NH2) | > 5

Continued, values first:

Row | EC50 [µM] | Compound
20 | > 5 | CCCC[C@H](N)C(=O)N[C@H](C(=O)N[C@H](C(=O)N[C@H](C(=O)NCC(=O)N[C@@H](C)C(=O)N[C@@H](C)C(=O)N[C@@H](Cc1c[nH]c2ccccc12)C(=O)N[C@@H](CC(=O)O)C(=O)N[C@@H](Cc1ccc(O)cc1)C(=O)N[C@@H](CCCCN)C(=O)N[C@@H](Cc1ccc(O)cc1)C(=O)O)C(C)C)[C@@H](C)CC)C(C)C [B4.2] (H-[Nle]VIVGAAWDYKY-OH; N-terminus and C-terminus assumed)
21 | > 50 | Ac-LVDVGAAWDYKY-NH2 [B3.16]
22 | > 5 | CCCC[C@H](NC(=O)[C@H](CC(=O)O)NC(C)=O)C(=O)N[C@H](C(=O)N[C@H](C(=O)NCC(=O)N[C@@H](C)C(=O)N[C@@H](C)C(=O)N[C@@H](Cc1c[nH]c2ccccc12)C(=O)N[C@@H](CC(=O)O)C(=O)N[C@@H](Cc1ccc(O)cc1)C(=O)N[C@@H](CCCCN)C(=O)N[C@@H](Cc1ccc(O)cc1)C(N)=O)C(C)C)[C@@H](C)CC [B5.7] (Ac-D[Nle]IVGAAWDYKY-NH2)
23 | > 5 | Ac-DVIDGAAWDYKR-NH2 [B8.23]
24 | > 5 | DVIVGAAWDYKY [B5.14]
25 | 21 | Ac-LVIVGAAWDYKR-NH2 [B3.4]
26 | > 5 | Ac-DIIDGAAWDYKY-NH2 [B8.16]
27 | > 5 | CCCC[C@H](NC(=O)[C@@H](NC(=O)[C@@H](N)CCCNC(=N)N)C(C)C)C(=O)N[C@H](C(=O)N[C@H](C(=O)N[C@H](C(=O)NCC(=O)N[C@@H](C)C(=O)N[C@@H](C)C(=O)N[C@@H](Cc1c[nH]c2ccccc12)C(=O)N[C@@H](CC(=O)O)C(=O)N[C@@H](Cc1ccc(N)cc1)C(=O)N[C@@H](CCCCN)C(=O)N[C@@H](Cc1ccc(O)cc1)C(=O)O)C(C)C)[C@@H](C)CC)C(C)C [B4.10] (H-RV[Nle]VIVGAAWD[Phe(4-NH2)]KY-OH; N-terminus and C-terminus assumed)
